Data: patent US20250108023A1, “Products for Masking Bitterness” (The Third People's Hospital of Henan Province, priority 2023, published 2025)

Molecular target: T1, sodium ion channel of Trpm5 bitter receptor (Mus musculus, UniProt Q9JJH7)
T1 construct: Put the removed tongue in a 2 ml EP tube, add 1-1.5 ml of 0.25% trypsin solution; from tissue; host or cells: cells dissociated with trypsin from mouse tongue
T1 sequence (Q9JJH7 1-1158): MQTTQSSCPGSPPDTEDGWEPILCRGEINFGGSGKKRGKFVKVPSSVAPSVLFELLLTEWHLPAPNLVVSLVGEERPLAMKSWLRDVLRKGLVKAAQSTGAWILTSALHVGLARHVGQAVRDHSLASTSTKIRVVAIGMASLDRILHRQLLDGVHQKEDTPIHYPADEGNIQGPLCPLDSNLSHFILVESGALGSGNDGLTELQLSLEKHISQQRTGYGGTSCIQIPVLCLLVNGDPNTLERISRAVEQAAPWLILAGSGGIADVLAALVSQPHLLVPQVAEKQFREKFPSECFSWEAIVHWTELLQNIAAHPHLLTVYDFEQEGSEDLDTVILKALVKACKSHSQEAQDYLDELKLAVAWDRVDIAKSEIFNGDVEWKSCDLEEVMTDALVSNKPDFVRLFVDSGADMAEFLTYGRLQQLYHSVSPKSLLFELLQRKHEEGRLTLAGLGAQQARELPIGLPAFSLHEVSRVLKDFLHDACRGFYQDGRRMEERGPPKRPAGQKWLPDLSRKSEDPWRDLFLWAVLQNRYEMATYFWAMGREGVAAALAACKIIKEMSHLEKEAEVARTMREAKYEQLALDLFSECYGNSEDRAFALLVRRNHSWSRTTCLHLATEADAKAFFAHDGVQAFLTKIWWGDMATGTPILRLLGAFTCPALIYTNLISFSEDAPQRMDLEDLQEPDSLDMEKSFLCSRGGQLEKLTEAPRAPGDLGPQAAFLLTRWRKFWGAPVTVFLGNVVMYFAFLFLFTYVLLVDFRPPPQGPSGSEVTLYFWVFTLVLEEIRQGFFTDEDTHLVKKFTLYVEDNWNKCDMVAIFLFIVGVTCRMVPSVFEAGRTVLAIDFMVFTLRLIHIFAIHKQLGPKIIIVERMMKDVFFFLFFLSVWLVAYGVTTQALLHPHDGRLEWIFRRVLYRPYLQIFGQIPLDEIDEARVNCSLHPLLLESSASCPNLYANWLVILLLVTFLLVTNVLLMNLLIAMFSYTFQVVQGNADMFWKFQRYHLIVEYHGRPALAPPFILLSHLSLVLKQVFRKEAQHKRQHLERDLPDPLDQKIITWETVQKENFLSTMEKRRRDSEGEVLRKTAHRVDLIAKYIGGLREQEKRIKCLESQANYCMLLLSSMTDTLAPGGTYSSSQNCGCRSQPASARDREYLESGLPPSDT
Experiment: Immunofluorescence experiment of sodium ion channels in mouse tongue cells stimulated with bitter agent
Assay type: cell-based, mice
Details: for blocking effect on the sodium ion channel (result analysis in words): judged from change of sodium ion fluorescence after bitter drug
Experimental: The mouse was killed by dislocation, and the tongue was removed (minimizing tongue bleeding), disinfected with alcohol for 2 minutes (adding sodium citrate for anticoagulation), and washed with D-Hanks solution or rinsed with 10 ml of saline solution drawn by a syringe.
Take out the centrifuge tube from the constant temperature incubator, shake for 2 minutes, blow the undigested tongue several times with the gun tip, take out the tongue, cover it with the EP tube cap, put it in a centrifuge, centrifuge at 3000 rpm for 3 minutes, discard the supernatant, add cell culture medium (containing 10% inactivated serum), blow and disperse the cells, and place it in a 37° C. constant temperature incubator for 30 min to allow the cells to recover.
(1) Take out the prepared ENG-2 AM storage solution and warm it to room temperature for use, keeping it away from light. The concentration of the pre-prepared stock solution is 2 mM and it is stored at −18° C. for future use.
(2) Dilute the ENG-2 AM+DMSO stock solution to a […] working solution using serum-free culture medium.
(3) Load the probe in a serum-free culture medium containing an appropriate concentration of AM probe.
Take out the cells from the incubator, centrifuge, and discard the culture medium. Wash the cells once with D-Hanks solution, centrifuge, and discard the culture medium. Add 1 ml of culture medium again, then add 300 ul of sodium ion probe dilution solution, blow and disperse the cells, and incubate the cells at room temperature or 37° C. for 1 hour.
At the end of incubation, centrifuge at 100 rpm for 2 minutes, discard the supernatant, add 500 ul of cell culture medium without AM probe, blow and disperse the cells, and incubate for 20-60 min to ensure that the cells completely deesterify the AM group.
(4) Take 10 ul of incubation solution and drop it into the center of the cell counting plate, cover it with a slide, and observe it under a fluorescence microscope.
(5) Use a low-power microscope to find the cells, open the fluorescence path, detect the fluorescence signal with a fluorescence microscope, change to a high-power microscope, find the appropriate observation cells, observe and take pictures to record the initial signal.
(2) Experimental drugs: Add 5 ul of the tested drug to one side of the cover glass on the cell counting plate, use absorbent paper to absorb water on the opposite side, let the solution soak the cells, and then use a fluorescence microscope to observe and take 3-5 photos, one every 1-2 minutes; then add 5 ul of the standard bitter drug to one side of the cover glass on the cell counting plate, use absorbent paper to absorb water on the opposite side, let the solution soak the cells, and then use a fluorescence microscope to observe and take 3-5 photos, one every 1-2 minutes.
(5) Data analysis: Use Image J-Fiji software to analyze the images, compare the average values of the fluorescence pixels, remove the base number and compare them in the table, draw FIGS. 4-6, and use SPSS18.0 to perform chi-square tests to compare the differences between the data groups.

[1] = Bitterant 60 s (2% metronidazole solution)
[2] = Bitterant 120 s (2% metronidazole solution)
[3] = Bitterant 180 s (2% metronidazole solution)
[4] = Initial (before addition of drug), sodium ion dye ENG-2 AM
[5] = Bitterant 240 s (2% metronidazole solution)

Molecule | average value of fluorescence brightness (Addition of drugs) | average value of fluorescence brightness, base number removed (Addition of drugs) | average value of fluorescence brightness [1] | average value of fluorescence brightness, base number removed [1] | average value of fluorescence brightness [2] | average value of fluorescence brightness, base number removed [2] | average value of fluorescence brightness [3] | average value of fluorescence brightness, base number removed [3] | average value of fluorescence brightness, base number removed (Initial) | average value of fluorescence brightness [4] | blocking effect on the sodium ion channel (result analysis in words) | average value of fluorescence brightness [5] | average value of fluorescence brightness, base number removed [5]
NCCCC(=O)O [GABA, 4-aminobutyric acid] | 27.367 | 0.082 | 27.287 | 0.002 | 27.21 | −0.075 | 27.127 | −0.158 | 0 | 27.285 | have poor effects and do not have bitterness masking effect |  | 
CC1CCC(C(C)C)C(O)C1 (stereo not shown) [Menthol, 2-isopropyl-5-methylcyclohexanol] | 22.118 | −0.435 | 22.04 | −0.513 | 21.924 | −0.629 | 21.907 | −0.646 | 0 | 22.553 | can block the sodium ion channel of Trpm5 bitter receptor | 20.562 | −1.991
CC1CCC(C(C)C)C(OC(=O)C(C)O)C1 (stereo not shown) [Menthyl lactate, 2-hydroxypropionic acid-5-methyl-2-(1-methylethyl)cyclohexyl ester] | 28.425 | −0.113 | 28.141 | −0.397 | 27.831 | −0.707 | 28.191 | −0.347 | 0 | 28.538 | can block the sodium ion channel of Trpm5 bitter receptor |  | 
Hydroxyvanillic acid | 28.082 | 0.093 | 27.496 | −0.493 | 27.697 | −0.292 | 27.919 | −0.07 | 0 | 27.989 | have poor effects and do not have bitterness masking effect |  | 
